Reference: paper PMC4286809, “Crystallographic and spectroscopic snapshots reveal a dehydrogenase in action” (Nature Communications, 2015)

How the values were obtained:
[1] = target: T1, 2-aminomuconate-6-semialdehyde dehydrogenase (AMSDH) (Pseudomonas fluorescens, UniProt Q83V33); assay: crystal structure of co-crystallized binary complex ([…] Å); format: binding
T1 construct: gene nbaE
T1 sequence (Q83V33 1-500): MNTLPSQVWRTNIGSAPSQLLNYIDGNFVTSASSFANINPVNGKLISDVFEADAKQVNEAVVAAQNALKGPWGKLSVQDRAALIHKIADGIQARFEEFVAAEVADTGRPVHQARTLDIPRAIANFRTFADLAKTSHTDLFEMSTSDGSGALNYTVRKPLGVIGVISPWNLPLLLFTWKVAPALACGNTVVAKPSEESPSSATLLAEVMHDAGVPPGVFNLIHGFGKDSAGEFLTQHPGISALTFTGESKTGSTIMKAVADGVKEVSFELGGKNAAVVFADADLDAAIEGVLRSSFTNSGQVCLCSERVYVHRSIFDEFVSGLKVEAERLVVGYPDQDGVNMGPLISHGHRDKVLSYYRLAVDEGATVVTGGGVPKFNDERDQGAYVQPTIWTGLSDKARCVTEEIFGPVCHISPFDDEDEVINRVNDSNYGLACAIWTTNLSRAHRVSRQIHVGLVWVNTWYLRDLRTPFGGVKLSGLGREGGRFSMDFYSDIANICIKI

[2] = target: T2, 2-aminomuconate-6-semialdehyde dehydrogenase (AMSDH) (Pseudomonas fluorescens, UniProt Q83V33, E268A); assay: crystal structures of thiohemiacetal (4OU2) and thioacyl (4OUB) adducts; ESI mass spectrometry; absorption titration; format: binding
T2 construct: gene nbaE
T2 sequence (Q83V33 1-500 E268A): T1 sequence (Q83V33 1-500)

[3] = target: T3, 2-aminomuconate-6-semialdehyde dehydrogenase (AMSDH) (Pseudomonas fluorescens, UniProt Q83V33, R120A); assay: steady-state kinetics (Km, lower bound); format: biochemical
T3 construct: gene nbaE
T3 sequence (Q83V33 1-500 R120A): T1 sequence (Q83V33 1-500)

[4] = target: T4, 2-aminomuconate-6-semialdehyde dehydrogenase (AMSDH) (Pseudomonas fluorescens, UniProt Q83V33, R464A); assay: steady-state kinetics; substrate inhibition Ki (Km […]); format: biochemical
T4 construct: gene nbaE

purified protein = substrate: O=C/C=C/C=C(/O)C(=O)O; assay: purified protein; format: biochemical, Pseudomonas fluorescens; conditions: NAD+ active site; bifurcated hydrogen bonds with Arg120 and Arg464; C6 becomes covalently bound to Cys302 in the later thioacyl intermediate (4NPI)
[5] = target: the molecule itself; assay: crystal structure; wild-type AMSDH, ligand-free, with NAD+, with NAD+ and 2-AMS or 2-HMS, and as thioacyl intermediate; space group P212121; four polypeptides per asymmetric unit

In the case of NC(=O)c1ccc[n+]([C@@H]2O[C@H](COP(=O)([O-])OP(=O)(O)OC[C@H]3O[C@@H](n4cnc5c(N)ncnc54)[C@H](O)[C@@H]3O)[C@@H](O)[C@H]2O)c1 [NAD+, NAD^+], the “crystal structure of co-crystallized binary complex (2.00 Å)” value [1] is reported as “an NAD^+ molecule is present in an extended, anti-conformation in the amino-terminal, co-substrate-binding domain of each monomer”.

O=C/C=C/C=C(/O)C(=O)O [2-HMS, 2-hydroxymuconate-6-semialdehyde] was tested, and the “crystal structures of thiohemiacetal (4OU2) and thioacyl (4OUB) adducts; ESI mas” value [2] was “a continuous electron density between Cys302-SG and 2-HMS-C6 is observed”, the Km [3] was greater than 446 µM and the Ki [4] was roughly 6 µM.

B1: 2-aminomuconate-6-semialdehyde dehydrogenase from Pseudomonas fluorescens, wild type (enzyme, UniProt Q83V33 1-500, looked up)
chain: T1 sequence (Q83V33 1-500)
notes: 2-aminomuconate-6-semialdehyde dehydrogenase (AMSDH), Pseudomonas fluorescens; also called AMSDH; wild-type AMSDH; source: E. coli overexpression system, purified
In the case of B1, the Km (purified protein) is reported as 10.4 ± 0.2 µM and the “stoichiometry N” value [5] is reported as 4.
